Consider 43 substances from article PMC2254445, “Statistical learning of peptide retention behavior in chromatographic separations: a new kernel-based approach for computational proteomics” (BMC Bioinformatics, 2007).

The data set is described as follows: Peptide retention time in capillary IP-RP-HPLC with ESI-MS detection. It counts as physicochemical. The conditions noted are these: vds1 (verified peptides, tryptic digest of protein mixture 1), 50 × 0.2 mm monolithic poly-(styrene/divinylbenzene) column, gradient 0–40% acetonitrile in 0.05% (v/v) aqueous trifluoroacetic acid in 60 min, 55°C, 2 μl/min; for observed retention time: in s (unit assumed); for normalized retention time (NRT): retention times scaled linearly so that TCVADESHAGCEK = 0.1 and MPCTEDYLSLILNR = 0.9. From the text: The datasets for training and evaluation of the retention time predictor had to fulfill two basic requirements. First, the identity of the studied peptides had to be known with high certainty in order to avoid incorrect sequence annotations for the training dataset, and second, retention times had to be measured with high reproducibility. Altogether, we measured 19 different proteins, which were purchased from Sigma (St. Louis, MO) or Fluka (Buchs, Switzerland). To avoid excessive overlapping of peptides in the chromatographic separations, the proteins were divided into three artificial protein mixtures and subsequently digested using trypsin (Promega, Madison, WI) using published protocols. The protein mixtures contained the following proteins in concentrations between 0.4 – 3.2 pmol/μl:
Mixture 1: β-casein (bovine milk), conalbumin (chicken egg white), myelin basic protein (bovine), hemoglobin (human), leptin (human), creatine phosphokinase (rabbit muscle), α1-acid-glycoprotein (human plasma), albumin (bovine serum). […]
Adding albumin to each protein mixture was performed because in each run, there had to be an identical set of peptides to normalize the retention times. The resulting peptide mixtures were then separated using capillary IP-RP-HPLC and subsequently identified by electrospray ionization mass spectrometry (ESI-MS) as described in detail in [37, 38]. The separations were carried out in a capillary/nano HPLC system (Model Ultimate 3000, Dionex Benelux, Amsterdam, The Netherlands) using a 50 × 0.2 mm monolithic poly-(styrene/divinylbenzene) column (Dionex Benelux) and a gradient of 0–40% acetonitrile in 0.05% (v/v) aqueous trifluoroacetic acid in 60 min at 55°C. The injection volume was 1 μl, and each digest was analyzed in triplicate at a flow rate of 2 μl/min. On-line ESI-MS detection was carried out with a quadrupole ion-trap mass spectrometer (Model esquire HCT, Bruker Daltonics, Bremen, Germany).
Peptides were identified on the basis of their tandem mass spectra (maximum allowed mass deviations: precursor ions: ± 1.3 Da, fragment ions: ± 0.3 Da) using Mascot (version 2.1.03). The database was the Mass Spectrometry Database, MSDB (version 2005-02-27) restricted to chordata (vertebrates and relatives). We allowed one missed cleavage as well as charges 1+, 2+ and 3+. The mass values were monoisotopic. The significance level of the significance threshold score for the peptide hits was 0.05. Since the amino acid sequences of the 19 proteins of our mixtures are known, we could verify the identifications by sequence comparison with the protein sequences. To avoid random verifications, we restricted the peptide length to be equal or greater than six. The whole process led to two datasets for each protein mixture – one which only contained the verified peptides and the other one with all Mascot identifications. In this paper, we call the datasets containing the verified peptide sequences vds and the datasets with all Mascot identifications ds. The vdss are used to train the predictors and the dss are used to access the classification performance of the identification process.
We chose two standard peptides which were identified in all of the runs. One of these peptides, which had the amino acid sequence TCVADESHAGCEK, eluted very early and the other one, which had the amino acid sequence MPCTEDYLSLILNR, eluted very late. We scaled the retention times linearly so that the early eluting peptide got an NRT of 0.1 and the late eluting peptide an NRT of 0.9. All peptides with an NRT below zero or above 1 were removed. The lists of identified peptides of vds1, vds2 and vds3, together with their respective retention times, are available as Additional files 1, 2 and 3 in the supplementary material.

Consider “CCTESLVNR [verified tryptic peptide, vds1]”, for which the observed retention time stood at 360 and the “normalized retention time (NRT)” value worked out at 0.2011.

On to “CCTKPESER [verified tryptic peptide, vds1]”, for which the observed retention time was determined as 47 and the “normalized retention time (NRT)” value was 0.05163.

CLDGSR [verified tryptic peptide, vds1]: the observed retention time came out at 169 and the “normalized retention time (NRT)” value is 0.1101.

With “DDPHACYSTVFDK [verified tryptic peptide, vds1]”, the observed retention time is 809 and the “normalized retention time (NRT)” value is given as 0.4159.

Take “DDPHACYSTVFDKLK [verified tryptic peptide, vds1]”: the observed retention time is given as 1174 and the “normalized retention time (NRT)” value turned out to be 0.5908.

Consider “DEYELLCLDGSR [verified tryptic peptide, vds1]”, for which the observed retention time turned out to be 1144 and the “normalized retention time (NRT)” value turned out to be 0.5761.

Turning to “DKCEPLEK [verified tryptic peptide, vds1]”, the observed retention time was 129 and the “normalized retention time (NRT)” value amounted to 0.09093.

Regarding “DVCKNYQEAK [verified tryptic peptide, vds1]”, the observed retention time was 119 and the “normalized retention time (NRT)” value is 0.08607.

For the substance “ECCDKPLLEK [verified tryptic peptide, vds1]”, the observed retention time stood at 459 and the “normalized retention time (NRT)” value was 0.2486.

“ECCHGDLLECADDR [verified tryptic peptide, vds1]”: the observed retention time was determined as 700 and the “normalized retention time (NRT)” value amounted to 0.364.

In the case of “ECNLAEVPTHAVVVRPEK [verified tryptic peptide, vds1]”, the observed retention time is recorded as 1126 and the “normalized retention time (NRT)” value is given as 0.5677.

Take “EQLGEFYEALDCLR [verified tryptic peptide, vds1]”: the observed retention time turned out to be 1723 and the “normalized retention time (NRT)” value is on record as 0.8534.

For “EQLGEFYEALDCLRIPK [verified tryptic peptide, vds1]”, the observed retention time was 1949 and the “normalized retention time (NRT)” value is listed as 0.9614.

In the case of “ETYGDMADCCEK [verified tryptic peptide, vds1]”, the observed retention time is 490 and the “normalized retention time (NRT)” value is 0.2635.

Regarding “EYEATLEECCAK [verified tryptic peptide, vds1]”, the observed retention time is 628 and the “normalized retention time (NRT)” value is 0.3297.

Turning to “FFSASCVPGATIEQK [verified tryptic peptide, vds1]”, the observed retention time turned out to be 1189 and the “normalized retention time (NRT)” value was 0.5977.

As to “GACLLPK [verified tryptic peptide, vds1]”, the observed retention time amounted to 453 and the “normalized retention time (NRT)” value turned out to be 0.2458.

As to “GTFAALSELHCDK [verified tryptic peptide, vds1]”, the observed retention time was found to be 1028 and the “normalized retention time (NRT)” value is 0.5207.

For “GTFAALSELHCDKLHVDPENFK [verified tryptic peptide, vds1]”, the observed retention time is 1645 and the “normalized retention time (NRT)” value was 0.8158.

Take “GYTLPPHCSR [verified tryptic peptide, vds1]”: the observed retention time was determined as 543 and the “normalized retention time (NRT)” value turned out to be 0.2886.

Consider “IQWCAVGK [verified tryptic peptide, vds1]”, for which the observed retention time worked out at 727 and the “normalized retention time (NRT)” value is 0.3767.

In the case of “KSCHTAVGR [verified tryptic peptide, vds1]”, the observed retention time worked out at 59 and the “normalized retention time (NRT)” value is on record as 0.05729.

As to “LCQLCQGSGGIPPEK [verified tryptic peptide, vds1]”, the observed retention time is 855 and the “normalized retention time (NRT)” value was 0.4382.

As to “LFTFHADICTLPDTEK [verified tryptic peptide, vds1]”, the observed retention time is recorded as 1608 and the “normalized retention time (NRT)” value came to 0.7983.

As to “LKPDPNTLCDEFK [verified tryptic peptide, vds1]”, the observed retention time amounted to 1112 and the “normalized retention time (NRT)” value worked out at 0.5611.

For the substance “LRCASIQK [verified tryptic peptide, vds1]”, the observed retention time was 221 and the “normalized retention time (NRT)” value was found to be 0.1348.

As to “MPCTEDYLSLILNR [late eluting standard peptide identified in all runs; verified tryptic peptide, vds1]”, the observed retention time turned out to be 1821.

With “NAPYSGYSGAFHCLK [verified tryptic peptide, vds1]”, the observed retention time is listed as 1104 and the “normalized retention time (NRT)” value stood at 0.5571.

As for “NECFLSHKDDSPDLPK [verified tryptic peptide, vds1]”, the observed retention time stood at 944 and the “normalized retention time (NRT)” value came to 0.4804.

For “NLQMDDFELLCTDGR [verified tryptic peptide, vds1]”, the observed retention time came out at 1581 and the “normalized retention time (NRT)” value worked out at 0.7853.

Take “NLQMDDFELLCTDGRR [verified tryptic peptide, vds1]”: the observed retention time is recorded as 1522 and the “normalized retention time (NRT)” value is reported as 0.7573.

With “RPCFSALTPDETYVPK [verified tryptic peptide, vds1]”, the observed retention time is 1337 and the “normalized retention time (NRT)” value amounted to 0.6687.

Turning to “SHCIAEVEK [verified tryptic peptide, vds1]”, the observed retention time is recorded as 238 and the “normalized retention time (NRT)” value is on record as 0.1429.

Regarding “SLHTLFGDELCK [verified tryptic peptide, vds1]”, the observed retention time is 1196 and the “normalized retention time (NRT)” value was 0.6014.

For “TCNPSDILQMCSFLEGK [verified tryptic peptide, vds1]”, the observed retention time is 1877 and the “normalized retention time (NRT)” value is listed as 0.9271.

Take “TCVADESHAGCEK [early eluting standard peptide identified in all runs; verified tryptic peptide, vds1]”: the observed retention time is 148.

Regarding “TGTCNFDEYFSEGCAPGSPPNSR [verified tryptic peptide, vds1]”, the observed retention time is given as 1370 and the “normalized retention time (NRT)” value amounted to 0.6845.

As for “TSCHTGLGR [verified tryptic peptide, vds1]”, the observed retention time is 76 and the “normalized retention time (NRT)” value amounted to 0.06527.

As for “VGGHAAEYGAEALER [verified tryptic peptide, vds1]”, the observed retention time was determined as 643 and the “normalized retention time (NRT)” value is listed as 0.3365.

Turning to “WCTISSPEEK [verified tryptic peptide, vds1]”, the observed retention time was determined as 697 and the “normalized retention time (NRT)” value amounted to 0.3623.

On to “WSVVSNGDVECTVVDETK [verified tryptic peptide, vds1]”, for which the observed retention time was determined as 1250 and the “normalized retention time (NRT)” value is on record as 0.6268.

“YICDNQDTISSK [verified tryptic peptide, vds1]”: the observed retention time is on record as 404 and the “normalized retention time (NRT)” value came to 0.2223.

For the substance “YNGVFQECCQAEDK [verified tryptic peptide, vds1]”, the observed retention time amounted to 775 and the “normalized retention time (NRT)” value is listed as 0.3998.
